# Assay results published in ChEMBL document CHEMBL1148155, “Botryllamides E-H, four new tyrosine derivatives from the ascidian Botrylloides tyreum” (J Nat Prod, 2004).
# System: HCT-116
# Experiment: Cytotoxicity against human HCT116 cells after 72 hrs by MTS/PMS assay
# Format: functional, cell-based
# Settings: HCT-116, 72 h
row,Compound,IC50 [µM]
1,CO/C(=C\c1ccc(O)cc1)C(=O)N/C=C/c1cc(Br)c(OC)c(Br)c1 [BOTRYLLAMIDE A],33
2,CO/C(=C\c1ccc(O)cc1)C(=O)N/C=C/c1ccc(OC)c(Br)c1 [BOTRYLLAMIDE C],28
3,CO/C(=C\c1ccc(O)cc1)C(=O)N/C=C/c1ccc(OC)cc1 [BOTRYLLAMIDE E],30
4,CO/C(=C\c1ccc(O)cc1)C(=O)N/C=C/c1ccc(O)cc1 [BOTRYLLAMIDE F],85
5,CO/C(=C\c1ccc(O)cc1)C(=O)N/C=C/c1cc(Br)c(O)c(Br)c1 [BOTRYLLAMIDE G],110
